For one assay, the target named is Pim-1 (Homo sapiens (Human), UniProt P11309). As to the kind of experiment: Pim enzyme assay (HTRF, phosphorylation of biotinylated-BAD (S112) peptide), Pim-1. In kind it is biochemical. Summed up:
(§1)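 Full-length human Pim-1 or Pim-2 with an N-terminal His6 tag, expressed in Sf9 or E. coli and purified as monomer. HTRF read-out: biotinylated BAD (S112) peptide phosphorylation detected with streptavidin-APC plus Eu-anti-phospho-BAD(S112) antibody, excitation 337 nm, emission 665 nm.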
(In general: Time-resolved FRET reads energy transfer from a long-lived donor to a nearby acceptor.)

The subject of assay [1] is KMS-12-BM myeloma cell line. Put plainly: Pim cell assay: phospho-BAD (S112) and total BAD in KMS-12-BM cells. In kind it is cell-based. The settings on record: 1 hour and 50 minutes incubation. The procedure:
The KMS-12-BM myeloma cell line was used to determine the in vitro cellular inhibition of Pim kinases. Disruption of Pim signaling by Pim inhibitors was determined by measuring the levels of phospho-BAD (S112) and total BAD. […] The cells were then incubated overnight at 37° C., 5% CO2. […] In addition to the 10-point dosing curve of the test compound, DMSO alone was run as a control. This dilution in DMSO was then diluted again into cell growth medium. Aliquots (11.1 uL) of the compound diluted in growth medium were then transferred to the appropriate wells of the 96-well plates containing cells to yield a final DMSO concentration of 0.3%. The cell plates were then incubated with compound for 1 hour and 50 minutes at 37° C., 5% CO2. After the 1 hour and 50 min incubation, the cell plates were spun at 1000 RPM for 10 minutes and the compound-containing medium was removed. […] The cell plates containing lysis buffer were then immediately stored at −70° C. These prepared lysates were then assayed for phospho-(S112) and total-BAD according to the manufacturer's protocol (Meso Scale Diagnostics, Cat # K15103D-3). The plates were read on the MSD Sector Imager 6000, and results were calculated according to the assay protocol: ((% Phosphoprotein=((2×Phospho signal)/(Phospho signal+Total signal))×100)).

The target in another assay is Pim-2 (Homo sapiens (Human), UniProt Q9P1W9). As to the kind of experiment: Pim enzyme assay (HTRF, phosphorylation of biotinylated-BAD (S112) peptide), Pim-2. The format is biochemical. The gist of the method:
as §1

[2] abbreviates: Homo sapiens, KMS-12-BM, read-out: KMS12_Cell_IC50.
Where [3] appears, read: full length recombinant Pim-2, biotinylated-BAD (S112) peptide, HTRF, read-out: Pim2_IC50.
Setting [4] is: full length recombinant Pim-1, biotinylated-BAD (S112) peptide, HTRF, read-out: Pim_1_IC50.
[5] abbreviates: full length recombinant Pim-1, biotinylated-BAD (S112) peptide, HTRF, 96-well, read-out: Pim-1 IC50 IP.
[6] abbreviates: Homo sapiens, KMS-12-BM, read-out: KMS-12-BM IC50 IP.
[7] abbreviates: full length recombinant Pim-2, biotinylated-BAD (S112) peptide, HTRF, 96-well, read-out: Pim-2 IC50 IP.
Setting [8] is: tris(2,2,2-trifluoroacetate), read-out: KMS-12-BM IC50 IP.

pIC50: −log10 of the molar value. Like-named read-outs stand apart in the source and are kept apart here.

Sequence of Pim-1 (P11309 whole entry): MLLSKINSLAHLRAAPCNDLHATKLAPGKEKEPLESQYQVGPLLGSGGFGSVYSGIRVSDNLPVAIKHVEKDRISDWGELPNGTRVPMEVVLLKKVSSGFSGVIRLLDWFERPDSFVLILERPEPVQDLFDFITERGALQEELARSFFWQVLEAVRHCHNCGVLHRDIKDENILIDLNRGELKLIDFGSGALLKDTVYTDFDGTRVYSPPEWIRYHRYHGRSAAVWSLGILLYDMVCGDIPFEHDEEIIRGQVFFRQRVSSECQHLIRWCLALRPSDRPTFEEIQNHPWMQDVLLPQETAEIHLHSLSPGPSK
Sequence of Pim-2 (Q9P1W9 whole entry): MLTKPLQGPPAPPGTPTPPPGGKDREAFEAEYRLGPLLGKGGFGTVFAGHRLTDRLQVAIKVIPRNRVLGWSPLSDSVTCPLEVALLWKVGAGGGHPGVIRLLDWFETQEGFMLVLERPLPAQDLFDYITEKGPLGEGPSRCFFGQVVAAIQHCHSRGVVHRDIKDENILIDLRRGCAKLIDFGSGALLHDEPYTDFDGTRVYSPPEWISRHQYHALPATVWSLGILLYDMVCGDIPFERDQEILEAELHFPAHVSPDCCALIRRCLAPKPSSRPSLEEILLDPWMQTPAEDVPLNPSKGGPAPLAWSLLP

In the case of `N[C@H]1CCCN(c2ccncc2Nc2ncc3ccc(-c4ccccc4F)nn23)C1` [Example 15, N-(4-((3S)-3-amino-1-piperidinyl)-3-pyridinyl)-2-(2-fluorophenyl)imidazo[1,5-b]pyridazin-7-amine bis(2,2,2-trifluoroacetate)], the pIC50 at Pim-1 (read-out: Pim_1_IC50) is 9.70; in assay [1] (setting [2]), 5.81; on Pim-2 (setting [3]) it was 8.70.

Regarding `Fc1cccc(F)c1-c1ccc2cnc(Nc3cnccc3OC3CNC3)n2n1` [Example 9, N-(4-(3-azetidinyloxy)-3-pyridinyl)-2-(2,6-difluorophenyl)imidazo[1,5-b]pyridazin-7-amine], the results for the pIC50 (on Pim-1 (setting [4]); in assay [1] (setting [2]); on Pim-2 (setting [3])) were 7.85, 4.99 and 7.00, respectively.

For the molecule `C[C@@H]1CN(c2ccncc2Nc2ncc3ccc(-c4c(F)cccc4F)nn23)C[C@@H](N)[C@H]1O` [Example 41, (3R,4S,5R)-3-amino-1-(3-((2-(2,6-difluorophenyl)imidazo[1,5-b]pyridazin-7-yl)amino)-4-pyridinyl)-5-methyl-4-piperidinol], the pIC50 was 10.00 at Pim-1 (setting [5]), 6.83 in assay [1] (setting [6]) and 9.30 on Pim-2 (setting [7]).

In the case of `C[C@H]1CCN(c2ccncc2Nc2ncc3ccc(-c4c(F)cccc4F)nn23)C[C@H]1N` (single isomer, unassigned) [Example 99, N-(4-((cis)-3-amino-4-methylpiperidin-1-yl)pyridin-3-yl)-2-(2,6-difluorophenyl)imidazo[1,5-b]pyridazin-7-amine bis(2,2,2-trifluoroacetate)], the pIC50 on Pim-1 (setting [5]) is 9.52; in assay [1] (bis(2,2,2-trifluoroacetate), read-out: KMS-12-BM IC50 IP), 5.57; on Pim-2 (setting [7]), 8.80.

For the molecule `N[C@H]1C[C@@H](F)CN(c2ccncc2Nc2ncc3ccc(-c4c(F)cccc4F)nn23)C1` [Example 48, N-(4-((3S,5R)-3-amino-5-fluoropiperidin-1-yl)pyridin-3-yl)-2-(2,6-difluorophenyl)imidazo[1,5-b]pyridazin-7-amine tris(2,2,2-trifluoroacetate)], the pIC50 is 9.10 at Pim-1 (setting [5]), 6.01 in assay [1] (setting [6]) and 8.49 at Pim-2 (setting [7]).

For the molecule `C[C@@H]1C[C@H](N)CN(c2ccncc2Nc2ncc3ccc(-c4ccccc4F)nn23)C1` (single isomer, unassigned) [Example 47, N-(4-((cis)-3-amino-5-methylpiperidin-1-yl)pyridin-3-yl)-2-(2-fluorophenyl)imidazo[1,5-b]pyridazin-7-amine tris(2,2,2-trifluoroacetate)], the pIC50 on Pim-1 (setting [5]) is 8.11; in assay [1] (setting [8]) it was 4.99; at Pim-2 (setting [7]), 7.27.

Take `C[C@H]1CN(c2ccncc2Nc2ncc3ccc(-c4ncccc4F)nn23)C[C@@H](N)[C@@H]1O` [Example 66, (3R,4R,5S)-3-amino-1-(3-((2-(3-fluoropyridin-2-yl)imidazo[1,5-b]pyridazin-7-yl)amino)pyridin-4-yl)-5-methylpiperidin-4-ol]: the pIC50 on Pim-1 (setting [5]) was 9.52; in assay [1] (setting [6]) it was 6.94; on Pim-2 (setting [7]) it was 8.89.

As to `Nc1cc(-c2ccncc2Nc2ncc3ccc(-c4c(F)cccc4F)nn23)ccn1` [Example 30, N3′-(2-(2,6-difluorophenyl)imidazo[1,5-b]pyridazin-7-yl)-4,4′-bipyridine-2,3′-diamine], the pIC50 at Pim-1 (setting [4]) is 8.15; in assay [1] (setting [2]) it was 4.67; at Pim-2 (setting [3]) it was 6.73.

With `N[C@H]1CCCN(c2ccccc2Nc2ncc3ccc(-c4c(F)cccc4F)nn23)C1` [Example 73, (S)-N-(2-(3-aminopiperidin-1-yl)phenyl)-2-(2,6-difluorophenyl)imidazo[1,5-b]pyridazin-7-amine], the pIC50 was 8.66 at Pim-1 (setting [5]), 5.46 in assay [1] (setting [6]) and 8.19 on Pim-2 (setting [7]).

For `N[C@H]1C[C@H](C(F)(F)F)CN(c2ccncc2Nc2ncc3ccc(-c4c(F)cccc4F)nn23)C1` (racemic) [Example 61, rac-N-(4-((trans)-3-amino-5-(trifluoromethyl)piperidin-1-yl)pyridin-3-yl)-2-(2,6-difluorophenyl)imidazo[1,5-b]pyridazin-7-amine bis(2,2,2-trifluoroacetate)], the values for the pIC50 (on Pim-1 (setting [5]); in assay [1] (setting [6]); on Pim-2 (setting [7])) were 9.40, 5.79 and 8.85, respectively.

Turning to `C[C@@H]1C[C@H](N)CN(c2ccncc2Nc2ncc3ccc(-c4ncccc4Cl)nn23)C1` [Example 79], the figures for the pIC50 (on Pim-1 (setting [5]); in assay [1] (setting [6]); at Pim-2 (setting [7])) were 9.70, 6.88 and 9.30, respectively.

As to `N[C@H]1CCCN(c2ccncc2Nc2ncc3ccc(-c4ccc(F)cc4F)nn23)C1` [Example 12, N-(4-((3S)-3-amino-1-piperidinyl)-3-pyridinyl)-2-(2,4-difluorophenyl)imidazo[1,5-b]pyridazin-7-amine], the pIC50 at Pim-1 (setting [4]) was 9.40; in assay [1] (setting [2]), 5.75; at Pim-2 (setting [3]), 8.52.

Regarding `O[C@@H]1CCN(c2ccncc2Nc2ncc3ccc(-c4c(F)cccc4F)nn23)C[C@H]1O` (single isomer, unassigned) [Example 35, 1-(3-((2-(2,6-difluorophenyl)imidazo[1,5-b]pyridazin-7-yl)amino)-4-pyridinyl)-3,4-trans-piperidinediol], the pIC50 was 8.57 at Pim-1 (setting [5]), 6.18 in assay [1] (setting [6]) and 8.06 on Pim-2 (setting [7]).

Consider `N[C@H]1C[C@@H](F)CN(c2ccncc2Nc2ncc3ccc(-c4ncccc4F)nn23)C1` [Example 53, N-(4-((3S,5R)-3-amino-5-fluoro-1-piperidinyl)-3-pyridinyl)-2-(3-fluoro-2-pyridinyl)imidazo[1,5-b]pyridazin-7-amine], for which the pIC50 is 8.47 on Pim-1 (setting [5]), 5.92 in assay [1] (setting [6]) and 7.96 at Pim-2 (setting [7]).

For the molecule `C[C@@H]1CCN(c2ccncc2Nc2ncc3ccc(-c4c(F)cccc4F)nn23)C[C@H]1N` (single isomer, unassigned) [Example 100, N-(4-((trans)-3-amino-4-methylpiperidin-1-yl)pyridin-3-yl)-2-(2,6-difluorophenyl)imidazo[1,5-b]pyridazin-7-amine tris(2,2,2-trifluoroacetate)], the pIC50 on Pim-1 (read-out: Pim-1 IC50 IP) was greater than 10.00; in assay [1] (setting [8]), 7.11; at Pim-2 (read-out: Pim-2 IC50 IP) it was 9.70.

In the case of `N[C@H]1CCCN(c2ccncc2Nc2ncc3ccc(-c4ncccc4Cl)nn23)C1` [Example 78, (S)-N-(4-(3-aminopiperidin-1-yl)pyridin-3-yl)-2-(3-chloropyridin-2-yl)imidazo[1,5-b]pyridazin-7-amine], the pIC50 was 9.05 at Pim-1 (setting [5]), 6.21 in assay [1] (setting [6]) and 8.59 at Pim-2 (setting [7]).

For `C[C@@H]1C[C@H](N)CN(c2ccncc2Nc2nnc3ccc(-c4ncccc4F)nn23)C1` [Example 92, N-(4-((3S,5R)-3-amino-5-methyl-1-piperidinyl)-3-pyridinyl)-6-(3-fluoro-2-pyridinyl)[1,2,4]triazolo[4,3-b]pyridazin-3-amine], the figures for the pIC50 (on Pim-1 (setting [5]); in assay [1] (setting [6]); at Pim-2 (setting [7])) were 8.80, 5.66 and 7.97, respectively.

As for `N[C@H]1CCCN(c2ccncc2Nc2ncc3ccc(-c4cccnc4Cl)nn23)C1` [Example 6, N-(4-((3S)-3-amino-1-piperidinyl)-3-pyridinyl)-2-(2-chloro-3-pyridinyl)imidazo[1,5-b]pyridazin-7-amine (2,2,2-trifluoroacetate)], the figures for the pIC50 (on Pim-1 (setting [4]); in assay [1] (setting [2]); at Pim-2 (setting [3])) were 8.10, 5.18 and 7.11, respectively.
